Measurements reported in US20190375778A1, “ADENOSINE DERIVATIVES FOR USE IN THE TREATMENT OF CANCER” (NuCana plc, priority 2016, published 2019).
pIC50: −log10 of the molar value.

Legend:
Murine leukemia L1210 = assay: Cell proliferation (Coulter count) assay, L1210; format: cell-based; details: Mus musculus, 48 h, read-out: absolute IC50, L1210
Excerpt: (§1) Lovo: cell line derived from a metastatic site in a patient with colon cancer MCF7: human oestrogen sensitive mammary epithelial cell line PC3: human prostate cancer cell line A549: cancerous lung tissue derived cells L1210: lymphoblast cell line derived from a mouse with lymphocytic leukaemia FM3A: mammary carcinoma murine cells CEM: human T-lymphoblasts, derived from the blood of a patient with acute lymphoblastic leukaemia HeLa: epithelial cells from a patient with cervical adenocarcinoma
(§2) Murine leukemia L1210, human T-lymphocyte CEM, and human cervix carcinoma HeLa cells were obtained from the American Type Culture Collection (ATCC) (Rockville, Md.). All cells were maintained in Dulbecco's modified Eagle's medium (DMEM) (Invitrogen, Carlsbad, Calif.) with 10% fetal bovine serum (FBS) (Biochrom AG, Berlin, Germany), 10 mM Hepes, and 1 mM sodiumpyruvate (Invitrogen). Cells were grown at 37° C. in a humidified incubator with a gas phase of 5% CO2. Monolayer cells (HeLa and […]) were seeded in 96-well microtiter plates (Nunc, Roskilde, Denmark) at 10 000 cells/well. After 24 h, an equal volume of fresh medium containing the test compounds was added. On day 5, cells were trypsinized and counted in a Coulter counter (Analis, Suarlee, Belgium). Suspension cells (L1210, CEM) were seeded in 96-well microtiter plates (Nunc) at 60 000 cells/well in the presence of a given amount of the test compounds. The cells were allowed to proliferate for 48 h (L1210) or 72 h (CEM) and were then counted in a Coulter counter. The 50% inhibitory concentration (IC50) was defined as the compound concentration required to reduce cell proliferation by 50%. The cytostatic activity of the compounds was determined after 3 days, as outlined above.

human T-lymphocyte CEM = assay: Cell proliferation (Coulter count) assay, CEM; format: cell-based; details: 72 h, read-out: absolute IC50, CEM
Excerpt: as §1, §2

[1] = system: human cervix carcinoma HeLa cells; assay: Cell proliferation (Coulter count) assay, HeLa; format: cell-based; details: 120 h, cell count on day 5, read-out: absolute IC50, HeLa
Excerpt: as §1, §2

CCRFCEM = assay: CellTiterGlo viability assay, CCRFCEM; format: cell-based; details: Homo sapiens, CCRF-CEM, 72 h, read-out: IC50 CCRFCEM
Method: (§3) In vitro viability assay were performed to assess the effects of compounds on cell viability in selected cell lines over ˜72 hrs using the CellTiterGlo (CTG, Promega-G7573) assay. The tests were performed in duplicates with treatment of compounds at 9 points, 3.16 folds titration in 96 well plates over ˜72 hrs. The compound starting concentrations were 198 μM. Cell viability assay using CellTiterGlo in 96-well plate were performed. Compound treatment 72 hrs, standard growth conditions, duplicates. Compounds were dissolved to 40 mM with thawed […]. Compounds were serially diluted at 3.16 fold in thawed DMSO, and warmed to 37° C. before being dissolved in media (2 μl+200 μl). After compounds were dissolved in media, media containing compounds were warmed to 37° C. in incubator and then compounds in media were added to cell plates (50 μl+50 μl) in duplicates. The compounds' final concentrations were from […] to 19.9 nM. All compound solubilities were checked and recorded again, then the plates were transferred to CO2 tissue culture incubator immediately and incubated for 3 days. DMSO final concentration is 0.5%.

HEL92.1.7 = assay: CellTiterGlo viability assay, HEL92.1.7; format: cell-based; details: Homo sapiens, HEL 92.1.7, 72 h, read-out: IC50 HEL92.1.7
Method: as §3

KG-1 = assay: CellTiterGlo viability assay, KG-1; format: cell-based; details: Homo sapiens, KG-1, 72 h, read-out: IC50 KG-1
Method: as §3

K562 = assay: CellTiterGlo viability assay, K562; format: cell-based; details: Homo sapiens, K562, 72 h, read-out: IC50 K562
Method: as §3

MCF7 [2] = assay: CellTiterGlo viability assay, MCF7; format: cell-based; details: Homo sapiens, MCF7, 72 h, read-out: IC50 MCF7
Method: as §3

MDAMB231 = assay: CellTiterGlo viability assay, MDAMB231; format: cell-based, Human
Method: as §3

NCI-H929 = assay: CellTiterGlo viability assay, NCI-H929; format: cell-based; details: Homo sapiens, NCI-H929, 72 h, read-out: IC50 NCI-H929
Method: as §3

MV4-11 = assay: CellTiterGlo viability assay, MV4-11; format: cell-based; details: Homo sapiens, MV4-11, 72 h, read-out: IC50 MV4-11
Method: as §3

RL = assay: CellTiterGlo viability assay, RL; format: cell-based; details: Homo sapiens, RL, 72 h, read-out: IC50 RL
Method: as §3

RPMI-8226 = assay: CellTiterGlo viability assay, RPMI-8226; format: cell-based, Human; details: Homo sapiens, RPMI-8226, 72 h, read-out: IC50 RPMI-8226
Method: as §3

HL-60 = assay: CellTiterGlo viability assay, HL-60; format: cell-based; details: Homo sapiens, HL-60, 72 h, read-out: IC50 HL-60
Method: as §3

Lovo = assay: MTT cytotoxicity assay, Lovo; format: cell-based; details: Homo sapiens, 96 h compound exposure, read-out: absolute IC50, Lovo
Excerpt: as §1
(§4) Anti-tumour evaluation in MCF7, LoVo, A549 and PC3 cell lines was performed by MTT assay. Compounds were prepared as 0.1-100 mM stock solutions dissolved in DMSO and stored at −20° C. Cells were seeded into 96-well microtitre plates at a density of 5×10^3 cells per well and allowed 24 hours to adhere. Decimal compound dilutions were prepared in medium immediately prior to each assay (final concentration 0.1-100 μM). Experimental medium was DMEM+10% FCS (PC3 and Lovo) or RPMI+10% heat inactivated FCS (A549 and MCF7). Following 96 h compound exposure at 37° C., 5% CO2, MTT reagent (Sigma Aldrich) was added to each well (final concentration 0.5 mg/ml). Incubation at 37° C. for 4 h allowed reduction of MTT by viable cells to an insoluble formazan product. MTT was removed and formazan solubilised by addition of 10% Triton X-100 in PBS. Absorbance was read on a Tecan Sunrise spectrophotometer at 540 nm as a measure of cell viability; thus inhibition relative to control was determined (IC50).

MCF7 [3] = assay: MTT cytotoxicity assay, MCF7; format: cell-based; details: Homo sapiens, 96 h compound exposure, read-out: absolute IC50, MCF7
Excerpt: as §1, §4

PC3 = assay: MTT cytotoxicity assay, PC3; format: cell-based; details: Homo sapiens, PC-3, 96 h compound exposure, read-out: absolute IC50, PC3
Excerpt: as §1, §4

A549 = assay: MTT cytotoxicity assay, A549; format: cell-based; details: Homo sapiens, 96 h compound exposure, read-out: absolute IC50, A549
Excerpt: as §1, §4

FM3A = assay: Cytotoxicity, FM3A; format: cell-based, murine; details: Mus musculus, read-out: absolute IC50, FM3A
Excerpt: as §1

SMILES: CC(C)C[C@H](NP(=O)(OC[C@H]1O[C@@H](n2c(Cl)nc3c(N)ncnc32)C(O)C1O)Oc1cccc2ccccc12)C(=O)OCc1ccccc1 (stereo partly drawn) [H, 5′-([(Benzyloxy-L-leucin-N-yl)-naphth-1-yl]-phosphatyl) 8-chloroadenosine]
- pIC50 (Murine leukemia L1210): 4.82 to 5.30
- pIC50 (human T-lymphocyte CEM): 5.30 to 7.00
- pIC50 [1]: 5.30 to 7.00
- pIC50 (CCRFCEM): 4.82 to 5.30
- pIC50 (HEL92.1.7): 5.30 to 7.00
- pIC50 (KG-1): 4.82 to 5.30
- pIC50 (K562): 5.30 to 7.00
- pIC50 (MCF7 [2]): 5.30 to 7.00
- MI% MDAMB231 (MDAMB231; CellTiterGlo, 72 hrs): 99%
- pIC50 (MDAMB231; Homo sapiens, MDA-MB-231, 72 h, read-out: IC50 MDAMB231): 4.82 to 5.30
- pIC50 (NCI-H929): 5.30 to 7.00
- pIC50 (MV4-11): 5.30 to 7.00
- pIC50 (RL): 4.00 to 4.82
- pIC50 (RPMI-8226): 5.30 to 7.00
- pIC50 (HL-60): 4.82 to 5.30

SMILES: CC(C)OC(=O)[C@H](C)NP(=O)(OC[C@H]1O[C@@H](n2c(Cl)nc3c(N)ncnc32)C(O)C1O)Oc1ccccc1 (stereo partly drawn) [W, 5′-([(Isopropyloxy-L-alanin-N-yl)-phenyl]-phosphatyl) 8-chloroadenosine]
- pIC50 (Lovo): 5.30 to 7.00
- pIC50 (MCF7 [3]): 4.00 to 4.82
- pIC50 (PC3): 5.30 to 7.00
- pIC50 (A549): 4.00 to 4.82
- pIC50 (Murine leukemia L1210): 4.00 to 4.82
- pIC50 (FM3A): 4.00 to 4.82
- pIC50 (human T-lymphocyte CEM): 4.00 to 4.82
- pIC50 [1]: 4.00 to 4.82

SMILES: CC(C)(C)COC(=O)C(C)(C)NP(=O)(OC[C@H]1O[C@@H](n2c(Cl)nc3c(N)ncnc32)C(O)C1O)Oc1ccccc1 (stereo partly drawn) [Y, 5′-([(Neopentyloxy-2,2-dimethylglycin-N-yl)-phenyl]-phosphatyl) 8-chloroadenosine]
- pIC50 (Lovo): 5.30 to 7.00
- pIC50 (MCF7 [3]): 4.00 to 4.82
- pIC50 (PC3): 5.30 to 7.00
- pIC50 (A549): < 4.00
- pIC50 (Murine leukemia L1210): 4.00 to 4.82
- pIC50 (FM3A): 4.00 to 4.82
- pIC50 (human T-lymphocyte CEM): 4.00 to 4.82
- pIC50 [1]: 4.00 to 4.82

SMILES: COC(=O)[C@H](CCSC)NP(=O)(OC[C@H]1O[C@@H](n2c(Cl)nc3c(N)ncnc32)C(O)C1O)Oc1ccccc1 (stereo partly drawn) [Z, 5′-([(Methyloxy-L-methionine-N-yl)phenyl]-phosphatyl) 8-chloroadenosine]
- pIC50 (Lovo): 4.00 to 4.82
- pIC50 (MCF7 [3]): 4.00 to 4.82
- pIC50 (PC3): 4.00 to 4.82
- pIC50 (A549): < 4.00
- pIC50 (Murine leukemia L1210): 4.00 to 4.82
- pIC50 (FM3A): < 4.00
- pIC50 (human T-lymphocyte CEM): 4.00 to 4.82
- pIC50 [1]: 4.00 to 4.82
